Experimental data as given in PMC4821612, “Multispecific Organic Cation Transporter 1 (OCT1) from Bos taurus Has High Affinity and Slow Binding Kinetics towards Prostaglandin E2” (PLoS ONE, 2016).
pKd: −log10 of the molar value.

Assays:
[1] = target: T1, Organic cation transporter 1 (btOCT1) (Bos taurus, UniProt A7MBE0, N71Q/N91Q/N107Q); assay: fluorescence polarization with purified btOCT1; rhodamine […] alone does not bind; format: binding
T1 construct: gene SLC22A1; purified tag-free btOCT1 triple N-glycosylation mutant (NP_001094568.1), expressed in Pichia pastoris
T1 sequence (A7MBE0 1-563 N71Q/N91Q/N107Q): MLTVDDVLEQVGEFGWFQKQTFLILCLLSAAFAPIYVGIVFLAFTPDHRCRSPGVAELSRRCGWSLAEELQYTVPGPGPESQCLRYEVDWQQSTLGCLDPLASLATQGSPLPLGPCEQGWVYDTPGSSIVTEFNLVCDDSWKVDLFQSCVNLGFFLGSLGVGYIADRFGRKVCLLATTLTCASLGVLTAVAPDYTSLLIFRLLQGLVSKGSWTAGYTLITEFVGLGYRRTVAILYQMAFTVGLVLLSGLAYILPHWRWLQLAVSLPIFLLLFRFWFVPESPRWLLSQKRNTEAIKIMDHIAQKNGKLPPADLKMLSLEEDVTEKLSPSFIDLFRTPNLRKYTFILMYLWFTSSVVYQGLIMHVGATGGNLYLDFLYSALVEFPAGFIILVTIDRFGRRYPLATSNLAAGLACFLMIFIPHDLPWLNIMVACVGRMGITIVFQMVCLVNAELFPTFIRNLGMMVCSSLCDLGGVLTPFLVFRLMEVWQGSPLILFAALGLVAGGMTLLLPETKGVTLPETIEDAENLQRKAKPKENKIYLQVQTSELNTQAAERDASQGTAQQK

[2] = target: T2, Organic cation transporter 1 (btOCT1) (Bos taurus, UniProt A7MBE0, N107Q/N71Q/N91Q); assay: SPR kinetics, purified btOCT1 over streptavidin-immobilised PGE2-PEG11-Biotin (PEG11-Biotin control); steady-state k […]; format: binding
T2 construct: gene SLC22A1; purified tag-free btOCT1 triple N-glycosylation mutant (NP_001094568.1), expressed in Pichia pastoris
T2 sequence (A7MBE0 1-563 N71Q/N91Q/N107Q): T1 sequence (A7MBE0 1-563 N71Q/N91Q/N107Q)

| Molecule | pKd [1] | pKd [2] |
| --- | --- | --- |
| PGE2-Rhodamine | 6.27 | – |
| CCCCC[C@H](O)/C=C/[C@H]1[C@H](O)CC(=O)[C@@H]1C/C=C\CCCC(=O)O [Prostaglandin E2] | – | ~7.00 |
